Results from patent publication US5362739A (priority 1990, dated 1994).
Structures can show the parent of a compound that is named as a salt. Where two headings read alike, the source gives them in different places.

How the values were obtained:
[1] = target: muscarinic receptors; format: binding, rat (Hooded Lister); conditions: 0.27 nM 3H-QNB, rat cerebral cortex membranes, 37° C., 30 min
[2] = target: muscarinic receptors; experiment: Radio ligand binding: displacement of the muscarinic agonist 3H-Oxotremorine-M (3H-OXO-M); parameters: species or system rat (Hooded Lister); conditions: 2 nM 3H-OXO-M, rat cerebral cortex membranes, 2 mM magnesium chloride, 37° C., 30 min

In the case of `CON=CC1=CC2CCN(C1)C2` (mixture of isomers) [Compound E4, (±) syn-1-Azabicyclo[3.2.1]oct-3-en-3-ylcarboxaldehyde-O-methyloxime hydrochloride salt], the IC50 [1] is reported as 1250 nM and the IC50 [2] is reported as 70 nM.
In the case of `CON=C(Cl)C1=CC2CCN(C1)C2` (racemic) [Compound E2, (±) 1-Azabicyclo[3.2.1]oct-3-en-3-yl-N-methoxycarboximidoyl chloride oxalate salt], the IC50 [1] is reported as 1100 nM and the IC50 [2] is reported as 100 nM.
For `CON=C(F)C1=CC2CCN(C1)C2` (racemic) [Compound E3, (±) 1-Azabicyclo[3.2.1]oct-3-en-3-yl-N-methoxcarboximidoyl fluoride oxalate salt], the IC50 [1] was 320 nM and the IC50 [2] was 26 nM.
Molecule `CON=C(C)C1=CC2CCN(C1)C2` (racemic) [Compound E5, (±)trans 3-Acetyl-1-azabicyclo[3.2.1]oct-3-ene-O-methyloxime hydrochloride salt] has an IC50 [1] of 1450 nM and an IC50 [2] of 175 nM.
Molecule `CON=C(C#N)C1=CC2CCN(C1)C2` (racemic) [Compound E6, (±)-α-(Methoxyimino)-α-(1-azabicyclo[3.2.1]oct-3-en-3-yl)acetonitrile oxalate salt] has an IC50 [1] of 330 nM and an IC50 [2] of 21 nM.
